What all share (format): cell-based
Assay [1] relates to lung epithelial cells (MLE-12). As to the kind of experiment: Protective effect against cell death due to RSL3 (LDH release), MLE-12. The settings on record: 24 hours. Here is the method: (§1) To confirm cell death protection effects on cardiac cells, adrenal medullary cells, renal fibroblasts, retinal epithelial cells, lung epithelial cells, renal proximal tubular epithelial cells, hippocampal neurons and fibroblasts, each type of cells were seeded at 4×10^3 to 1.2×10^4 cells/well in a 96-well plate and cultured for 18 to 24 hours. The example compounds were diluted to have the final concentration of 0.001, 0.003, 0.01, 0.3, 1, 3, and 10 μM, respectively, and then added to different wells and cultured for 15 to 20 minutes. […] To confirm the cell death protection effect of the example compounds, the degree of extracellular secretion of lactate dehydrogenase (LDH) was measured using a cytotoxicity LDH assay kit [Dojindo; CK12]. Briefly, at the end of 24-hour treatment of each type of cells with RSL3, 70 μL of the supernatant was taken from the 96-well plate where the cells were cultured and transferred to a new 96-well plate. The assay buffer included in the kit was added at 70 μL/well (equal to that of the sample) and the plate was covered with foil to block light and allowed to react for 15 to 20 minutes at room temperature. While observing a color change of the sample, 35 µL/well of a stop solution was added, an absorbance at 490 nm was measured using an iD3 spectrophotometer, and an EC50 value was calculated.

The next assay deals with cardiac cells (H9C2). As to the kind of experiment: Protective effect against cell death due to RSL3 (LDH release), H9C2. The following applies: RSL3 0.5 μM, 24 hours. Here is the method:
as §1

The test system of assay [2] is MLE-12 cells. As to the kind of experiment: Inhibitory effect on mitochondrial accumulation of ferrous ions (Mito-FerroGreen) under RSL3. The settings on record: 1 μM RSL3, 8 hours, compound 0.01, 0.1, 1 μM, FIG. 6. How it is done: To confirm the inhibitory effect on the mitochondrial accumulation of ferrous ions in lung epithelial cells, MILE-12 cells were seeded at 2×10^5 cells/well in a 12-well plate and cultured for 18 to 24 hours. Example Compound 29 and Fer-1 were diluted to have the final concentration of 0.01, 0.1, and 1 μM and added to each well, and the cells were cultured for 10 minutes. Afterward, RSL3 was treated to have the final concentration of 1 μM, and the cells were cultured for 8 hours. To confirm the inhibitory effect on the mitochondrial accumulation of ferrous ions, Mito-FerroGreen (DOJINDO; M489) was used. According to the manufacturer's protocol, the Mito-FerroGreen was diluted in the culture broth to have the final concentration of 1 μM, and fluorescence staining was performed after a 30-minute reaction. The MLE-12 cells that were fluorescence-stained with Mito-FerroGreen were detached from the 12-well plate using 0.25% trypsin-EDTA and transferred to a microtube. Fluorescence (Ex/Em=505 nm/535 nm) was measured using, BD FACSLyric™, and the relative change compared to the control was calculated.

In assay [3] the test system is hippocampal neurons (HT-22). As to the kind of experiment: Protective effect against cell death due to RSL3 (LDH release), HT-22. The following applies: RSL3 0.3 μM, 24 hours. How it is done: as §1
For orientation: Release of lactate dehydrogenase indicates damage to the cell membrane.

Assay [4] concerns renal proximal tubular epithelial cells (HK2). As to the kind of experiment: Protective effect against cell death due to RSL3 (LDH release), HK2. The settings on record: RSL3 0.3 μM, 24 hours. Here is the method: as §1
In assay [5] the test system is renal fibroblasts (NRK-49F). As to the kind of experiment: Protective effect against cell death due to RSL3 (LDH release), NRK-49F. The following applies: RSL3 3 μM, 24 hours. How it is done:
as §1

The subject of assay [6] is MLE-12 cells. Put plainly: Inhibitory effect on mitochondrial lipid ROS (MitoPerOx) under RSL3. The settings on record: 1 μM RSL3, 2 hours, compound 0.01, 0.1, 1 μM, FIG. 2. How it is done: To confirm the protective effect against mito-lipid ROS in lung epithelial cells, MLE-12 cells were seeded at 2×10^5 cells/well in a 12-well plate and cultured for 18 to 24 hours. Example Compound 29 and Fer-1 were diluted to have the final concentration of 0.01, 0.1, and 1 μM and added to each well, and the cells were cultured for 10 minutes. Afterward, RSL3 was treated to have the final concentration of 1 M, and the cells were cultured for 2 hours. To confirm the inhibitory effect on mito-lipid ROS, the fluorescent mitochondria-targeted lipid peroxidation probe MitoPerOx (abcam; ab146820) was used. According to the manufacturer's protocol, MitoPerOx was diluted in the culture broth to have the final concentration of 1 μM and treated, and fluorescence staining was performed after a 30-minute reaction. The MLE-12 cells that were fluorescence-stained with MitoPerOx were detached from the 12-well plate using 0.25% trypsin-EDTA and transferred to a microtube. Fluorescence (Ex/Em=495 nm/520-590 nm) was measured using BD FACSLyric™, and the relative change compared to the control was calculated.

Assay [7] deals with adrenal medullary cells (PC-12). As to the kind of experiment: Protective effect against cell death due to RSL3 (LDH release), PC-12. The settings on record: RSL3 0.3 μM, 24 hours. Here is the method: as §1
In assay [8] the test system is MLE-12 cells. As to the kind of experiment: Inhibitory effect on cytosolic ROS (CM-H2DCFDA) under RSL3. The settings on record: 1 μM RSL3, 2 hours, compound 0.01, 0.1, 1 μM, FIG. 3. How it is done:
To confirm the protective effect against cyto-ROS in lung epithelial cells, MLE-12 cells were seeded at 2×10^5 cells/well in a 12-well plate, and cultured for 18 to 24 hours. Example Compound 29 and Fer-1 were diluted to have the final concentration of 0.01, 0.1, and 1 μM and added to each well, and the cells were cultured for 10 minutes. Afterward, RSL3 was treated to have the final concentration of 1 M, and the cells were cultured for 2 hours. To confirm the inhibitory effect on cyto-ROS, the general oxidative stress indicator CM-H2DCFDA (Invitrogen™; C6827) was used. According to the manufacturer's protocol, CM-H2DCFDA was diluted in the culture broth to have the final concentration of 5 μM, and fluorescence staining was performed after a 30-minute reaction. The MLE-12 cells that were fluorescence-stained with CM-H2DCFDA were detached from the 12-well plate using 0.25% trypsin-EDTA and transferred to a microtube. Fluorescence (Ex/Em=492˜495 nm/517-527 nm) was measured using BD FACSLyric™, and the relative change compared to the control (RSL3-untreated group) was calculated.

Molecules are shown by their SMILES. Bounds are passed on as bounds.

As for `OCCOCCOCc1cc(NC2CCOCC2)c2[nH]c(-c3ccccc3)cc2c1` [Example 29, 2-(2-((2-phenyl-7-((tetrahydro-2H-pyran-4-yl)amino)-1H-indol-5-yl)methoxy)ethoxy)ethan-1-ol], the EC50 in assay [1] (MLE12, RSL3 1 μM) was at most 100 nM; with cardiac cells (H9C2) (Rattus norvegicus) it was at most 100 nM; in assay [3] (Mus musculus) it was at most 100 nM; in [4] (Epithelial cell) it was at most 100 nM; in assay [5] (Rattus norvegicus) it was at most 100 nM; in [7] (Rattus norvegicus) it was 100 to 1000 nM. In addition, the “mitochondrial ferrous ions increased by RSL3 treatment” value in the assay with MLE-12 cells [2] is “significantly reduced mitochondrial ferrous ion levels at 0.01, 0.1, and 1 M”. The “mito-lipid ROS increased by RSL3 treatment” value in the assay on MLE-12 cells [6] was “significantly decreased at 1 μM”. Moreover, in the assay with MLE-12 cells [8], the “cyto-ROS increased by RSL3 treatment” value was “significantly reduced lipid ROS levels at 0.1 and 1 μM”.

Regarding `CCOC(=O)c1ccc(NC2CCCCC2)c(N)c1` [Fer-1, ferrostatin-1, reference compound], the concentration giving a half-maximal response (EC50) in [1] (RSL3 1 μM) is 100 to 1000 nM; in the assay on cardiac cells (H9C2), at most 100 nM; in [3], 100 to 1000 nM; in assay [4] it was at most 100 nM; in assay [5], at most 100 nM; in assay [7] it was at most 100 nM. Further, the “mitochondrial ferrous ions increased by RSL3 treatment” value in the assay with MLE-12 cells [2] was “significantly reduced mitochondrial ferrous ion levels at 0.1 and 1 μM”. For the same compound, the “mito-lipid ROS increased by RSL3 treatment” value in the assay with MLE-12 cells [6] was “significantly decreased at 1 μM”. Besides, the “cyto-ROS increased by RSL3 treatment” value with MLE-12 cells [8] is “significantly reduced lipid ROS levels at 0.01, 0.1 and 1 μM”.

In general, EC50 refers to the concentration giving half of the maximal effect. Read a high EC50 as lower potency in that assay.

The values above are taken from patent US20260159481A1, “INDOLE DERIVATIVE WITH SUBSTITUENT AND PHARMACEUTICAL USE” (MITOIMMUNE THERAPEUTICS INC., priority 2023, published 2026).
